Calls of active or inactive are those of the source. The rule behind the calls is not given here.
Key:
DMS-114 [1] = test: Synergistic antiproliferative activity against human DMS-114 cells assessed as combination index at 2 nM incubated for 72 hrs in presence of 2.4 uM venetoclax by WST-1 assay; format: functional
DMS-53 [2] = test: Synergistic antiproliferative activity against human DMS-53 cells assessed as combination index at 1.5 nM incubated for 72 hrs in presence of […] venetoclax by WST-1 assay; format: functional
DMS-114 [3] = test: Synergistic antiproliferative activity against human DMS-114 cells assessed as combination index at 1 nM incubated for 72 hrs in presence of 2.4 uM venetoclax by WST-1 assay; format: functional
DMS-53 [4] = test: Synergistic antiproliferative activity against human DMS-53 cells assessed as combination index at 1 nM incubated for 72 hrs in presence of 50 uM venetoclax by WST-1 assay; format: functional
DMS-114 [5] = test: Synergistic antiproliferative activity against human DMS-114 cells assessed as combination index at 2 nM incubated for 72 hrs in presence of 12 uM venetoclax by WST-1 assay; format: functional
DMS-114 [6] = test: Modulation of RNA splicing in human DMS-114 cells at 3 to 30 nM by Western blot analysis; format: functional, cell-based; conditions: dose 3-30 nM
DMS-53 [7] = test: Synergistic antiproliferative activity against human DMS-53 cells assessed as combination index at 1 nM incubated for 72 hrs in presence of […] venetoclax by WST-1 assay; format: functional
[8] = Synergistic antiproliferative activity against human Osimertinib-resistant HCC827AR cell assessed as combination index at 2 nM incubated for 72 hrs in presence of 4 uM osimertinib by WST-1 assay; format: functional
HCT-116 [9] = test: Modulation of RNA splicing in human HCT-116 cells assessed as decrease in SF3B1 phosphorylation at thr313 residue by Western blot analysis; format: functional, cell-based; conditions: dose 3-100 nM
DMS-53 [10] = test: Synergistic antiproliferative activity against human DMS-53 cells assessed as combination index at 1.5 nM incubated for 72 hrs in presence of […] venetoclax by WST-1 assay; format: functional
[11] = Metabolic stability in CD1 mouse plasma assessed as half life measured after 48 hrs by LC-MS analysis; format: ADME, cell-free
DMS-53 [12] = test: Synergistic antiproliferative activity against human DMS-53 cells assessed as combination index at 0.5 nM incubated for 72 hrs in presence of 25 uM venetoclax by WST-1 assay; format: functional
[13] = Growth inhibition of human CCD-841CoN cells assessed as reduction in cell viability incubated for 72 hrs; format: toxicity, cell-based
HCT-116 [14] = test: Growth inhibition of human HCT-116 cells assessed as reduction in cell viability incubated for 72 hrs; format: functional
DMS-114 [15] = test: Synergistic antiproliferative activity against human DMS-114 cells assessed as combination index at 3 nM incubated for 72 hrs in presence of 2.4 uM venetoclax by WST-1 assay; format: functional
[16] = Synergistic antiproliferative activity against human Osimertinib-resistant HCC827AR cell assessed as combination index at 1 nM incubated for 72 hrs in presence of 0.50 uM osimertinib by WST-1 assay; format: functional
DMS-53 [17] = test: Synergistic antiproliferative activity against human DMS-53 cells assessed as combination index at 1 nM incubated for 72 hrs in presence of 25 uM venetoclax by WST-1 assay; format: functional
DMS-114 [18] = test: Synergistic antiproliferative activity against human DMS-114 cells assessed as combination index at 3 nM incubated for 72 hrs in presence of 6 uM venetoclax by WST-1 assay; format: functional
[19] = Synergistic antiproliferative activity against human Osimertinib-resistant HCC827AR cell assessed as combination index at 2.5 nM incubated for 72 hrs in presence of 0.50 uM osimertinib by WST-1 assay; format: functional
DMS-114 [20] = test: Synergistic antiproliferative activity against human DMS-114 cells assessed as combination index at 2 nM incubated for 72 hrs in presence of 6 uM venetoclax by WST-1 assay; format: functional
[21] = Synergistic antiproliferative activity against human Osimertinib-resistant HCC827AR cell assessed as combination index at 1 nM incubated for 72 hrs in presence of 2 uM osimertinib by WST-1 assay; format: functional
DMS-114 [22] = test: Synergistic antiproliferative activity against human DMS-114 cells assessed as combination index at 1 nM incubated for 72 hrs in presence of 12 uM venetoclax by WST-1 assay; format: functional
[23] = Synergistic antiproliferative activity against human Osimertinib-resistant HCC827AR cell assessed as combination index at 2 nM incubated for 72 hrs in presence of 0.50 uM osimertinib by WST-1 assay; format: functional
[24] = Synergistic antiproliferative activity against human Osimertinib-resistant HCC827AR cell assessed as combination index at 1.5 nM incubated for 72 hrs in presence of 2 uM osimertinib by WST-1 assay; format: functional
DMS-53 [25] = test: Synergistic antiproliferative activity against human DMS-53 cells assessed as combination index at 2 nM incubated for 72 hrs in presence of 400 […] by WST-1 assay; format: functional
[26] = Synergistic antiproliferative activity against human Osimertinib-resistant HCC827AR cell assessed as combination index at 2.5 nM incubated for 72 hrs in presence of 2 uM osimertinib by WST-1 assay; format: functional
HCT-116 [27] = test: Modulation of RNA splicing in human HCT-116 cells assessed as decrease in MCL-1L expression by Western blot analysis; format: functional, cell-based; conditions: dose 3-100 nM
DMS-114 [28] = test: Synergistic antiproliferative activity against human DMS-114 cells assessed as combination index at 3 nM incubated for 72 hrs in presence of 3.6 uM venetoclax by WST-1 assay; format: functional
[29] = Synergistic antiproliferative activity against human Osimertinib-resistant HCC827AR cell assessed as combination index at 2.5 nM incubated for 72 hrs in presence of 1 uM osimertinib by WST-1 assay; format: functional
DMS-53 [30] = test: Synergistic antiproliferative activity against human DMS-53 cells assessed as combination index at 2 nM incubated for 72 hrs in presence of […] venetoclax by WST-1 assay; format: functional
SW48 = test: Growth inhibition of human SW48 cells assessed as reduction in cell viability incubated for 72 hrs; format: functional
HCT-116 [31] = test: Modulation of RNA splicing in human HCT-116 cells assessed as decrease in MCL-1S expression by Western blot analysis; format: functional, cell-based; conditions: dose 3-100 nM
DMS-53 [32] = test: Growth inhibition of human DMS-53 cells assessed as reduction in cell viability incubated for 72 hrs; format: functional
[33] = Synergistic antiproliferative activity against human Osimertinib-resistant HCC827AR cell assessed as combination index at 1.5 nM incubated for 72 hrs in presence of 0.50 uM osimertinib by WST-1 assay; format: functional
[34] = Synergistic antiproliferative activity against human Osimertinib-resistant HCC827AR cell assessed as combination index at 2 nM incubated for 72 hrs in presence of 2 uM osimertinib by WST-1 assay; format: functional
DMS-53 [35] = test: Synergistic antiproliferative activity against human DMS-53 cells assessed as combination index at 2 nM incubated for 72 hrs in presence of 50 […] by WST-1 assay; format: functional
[36] = Synergistic antiproliferative activity against human Osimertinib-resistant HCC827AR cell assessed as combination index at 1.5 nM incubated for 72 hrs in presence of 0.25 uM osimertinib by WST-1 assay; format: functional
[37] = Metabolic stability in CD1 mouse plasma measured after 48 hrs by LC-MS analysis; format: ADME, cell-free

half-life [11]: 13 h
GI50 (HCT-116 [14]): 2 nM
GI50 (SW48): 2.5 nM
Stability [37]: Stable
SMILES: COCO[C@@H](C)/C=C\C(=O)N[C@@H]1C[C@H](C)[C@H](C/C=C(C)/C=C/[C@H]2OC(C)(C)C[C@@]3(CO3)[C@@H]2O)O[C@@H]1C
CI (DMS-114 [1]): 0.69
CI (DMS-53 [2]): 0.67
CI (DMS-114 [3]): 1.11
CI (DMS-53 [4]): 0.8
CI (DMS-114 [5]): 0.44
Activity (DMS-114 [6]): Active
CI (DMS-53 [7]): 1.08
CI [8]: 0.87
Activity (HCT-116 [9]): Dose-Dependent Effect
CI (DMS-53 [10]): 0.72
CI (DMS-53 [12]): 1.33
GI50 at 72 h [13]: 9.6 nM
CI (DMS-114 [15]): 0.21
CI [16]: 1.42
CI (DMS-53 [17]): 1.04
CI (DMS-114 [18]): 0.2
CI [19]: 0.99
CI (DMS-114 [20]): 0.67
CI [21]: 1.37
CI (DMS-114 [22]): 0.88
CI [23]: 1.08
CI [24]: 1.34
CI (DMS-53 [25]): 0.33
CI [26]: 0.99
Activity (HCT-116 [27]): Dose-Dependent Effect
CI (DMS-114 [28]): 0.23
CI [29]: 1.04
CI (DMS-53 [30]): 0.42
Activity (HCT-116 [31]): Dose-Dependent Effect
GI50 (DMS-53 [32]): 2.7 nM
CI [33]: 1.28
CI [34]: 1.17
CI (DMS-53 [35]): 0.47
CI [36]: 0.92

— ChEMBL document CHEMBL5370646, “Synthesis and Conformational Analysis of FR901464-Based RNA Splicing Modulators and Their Synergism in Drug-Resistant Cancers” (J Med Chem, 2023)
